According to publication PMC10303012, “Volatile Short-Chain Aliphatic Aldehydes Act as Taste Modulators through the Orally Expressed Calcium-Sensing Receptor CaSR” (Molecules, 2023):

Key:
Assay type in all cases: cell-based
[1] = target: T1, calcium-sensing receptor CaSR (Homo sapiens, UniProt P41180); assay: calcium mobilization assay in PEAKrapid cells transiently expressing human CaSR, with mock control
T1 sequence (P41180 20-1078): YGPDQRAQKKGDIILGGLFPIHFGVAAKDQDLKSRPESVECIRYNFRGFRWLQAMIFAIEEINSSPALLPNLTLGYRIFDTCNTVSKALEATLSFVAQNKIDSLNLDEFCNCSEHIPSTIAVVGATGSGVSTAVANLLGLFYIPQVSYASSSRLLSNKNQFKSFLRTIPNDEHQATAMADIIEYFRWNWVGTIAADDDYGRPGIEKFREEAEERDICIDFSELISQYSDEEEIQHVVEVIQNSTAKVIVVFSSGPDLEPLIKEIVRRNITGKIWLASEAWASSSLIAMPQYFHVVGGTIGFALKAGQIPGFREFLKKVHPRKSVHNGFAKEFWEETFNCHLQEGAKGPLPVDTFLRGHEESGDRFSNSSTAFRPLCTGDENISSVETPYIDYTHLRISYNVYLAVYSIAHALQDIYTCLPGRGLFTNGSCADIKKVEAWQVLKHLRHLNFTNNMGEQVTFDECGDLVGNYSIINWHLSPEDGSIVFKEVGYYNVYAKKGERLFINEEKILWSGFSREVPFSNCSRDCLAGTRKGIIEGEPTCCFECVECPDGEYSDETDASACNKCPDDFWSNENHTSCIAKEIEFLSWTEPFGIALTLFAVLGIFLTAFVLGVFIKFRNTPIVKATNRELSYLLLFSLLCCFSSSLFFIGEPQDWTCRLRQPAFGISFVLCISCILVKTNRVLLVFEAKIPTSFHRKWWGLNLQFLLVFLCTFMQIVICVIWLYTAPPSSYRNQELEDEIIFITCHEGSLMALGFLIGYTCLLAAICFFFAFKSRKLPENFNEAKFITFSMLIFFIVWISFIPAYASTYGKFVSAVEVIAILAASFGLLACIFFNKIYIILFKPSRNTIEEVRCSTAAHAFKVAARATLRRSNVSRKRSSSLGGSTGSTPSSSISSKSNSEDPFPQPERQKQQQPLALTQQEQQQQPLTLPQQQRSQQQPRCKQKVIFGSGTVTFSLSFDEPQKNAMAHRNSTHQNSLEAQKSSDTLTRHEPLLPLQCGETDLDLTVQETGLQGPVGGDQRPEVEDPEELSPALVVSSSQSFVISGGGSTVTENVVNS

[2] = target: T1, calcium-sensing receptor CaSR; assay: calcium mobilization assay in PEAKrapid cells transiently expressing human CaSR; potentiation of CaCl2 response at […]
[3] = target: T1, calcium-sensing receptor CaSR; assay: calcium mobilization assay in PEAKrapid cells transiently expressing human CaSR, with mock control; remark: listed apart in the source

Compound	calcium mobilization assay in PEAKrapid cells transiently expressing human CaSR, [1]	further results
CCCCCC=O [hexanal]	2-methylbutylaldehyde (D,I), pentanal (E,I), hexanal (F,I)	
CC(C)C=O [isobutylaldehyde]	CaSR was activated by propionaldehyde (A,I), butanal (B,I), isobutylaldehyde (C,I)	
CCC=O [propionaldehyde]	CaSR was activated by propionaldehyde (A,I)	
CCCC=O [butanal]	CaSR was activated by propionaldehyde (A,I), butanal (B,I)	
CCCCC=O [pentanal]	2-methylbutylaldehyde (D,I), pentanal (E,I), hexanal (F,I)	
CSCCC=O [MTN, methional]		calcium mobilization assay in PEAKrapid cells transiently expressing human CaSR, [2]: only methional activated CaSR, while neither of the methional analogues tested activated CaSR
CCC(C)C=O (centres unmarked) [2-methylbutylaldehyde]	CaSR was activated by propionaldehyde (A,I), butanal (B,I), isobutylaldehyde (C,I), 2-methylbutylaldehyde (D,I)	
CC(C)CC=O [IVAH, isovaleraldehyde]		EC50 [3]: 681 µM
